Test results taken from PubChem BioAssay (NCI).
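Step 1: Grow cells in 96-well plates. Step 2: Expose to compound for 48 hours at 5 concentrations. Step 3: Interpolate endpoints linearly; if unreached, use highest concentration. At the TGI there is no net growth.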 Where a SMILES comes first, the peptide text is derived from it. The star is where a group is joined. Boc = CC(C)(C)OC(=O)*

Experiments:
Assay in all cases: NCI-60 cell line screen, 48 h
786-0 renal = system: 786-0 renal
A498 renal = system: A498 renal
A549 NSCLC = system: A549 NSCLC
ACHN renal = system: ACHN renal
BT-549 breast = system: BT-549 breast
CAKI-1 renal = system: CAKI-1 renal
CCRF-CEM leukemia = system: CCRF-CEM leukemia
COLO 205 colon = system: COLO 205 colon
DU-145 prostate = system: DU-145 prostate
EKVX NSCLC = system: EKVX NSCLC
HCC-2998 colon = system: HCC-2998 colon
HCT-116 colon = system: HCT-116 colon
HCT-15 colon = system: HCT-15 colon
HL-60(TB) leukemia = system: HL-60(TB) leukemia
HOP-62 NSCLC = system: HOP-62 NSCLC
HOP-92 NSCLC = system: HOP-92 NSCLC
HS 578T breast = system: HS 578T breast
HT29 colon = system: HT29 colon
IGROV1 ovarian = system: IGROV1 ovarian
K-562 leukemia = system: K-562 leukemia
KM12 colon = system: KM12 colon
LOX IMVI melanoma = system: LOX IMVI melanoma
M14 melanoma = system: M14 melanoma
MALME-3M melanoma = system: MALME-3M melanoma
MCF7 breast = system: MCF7 breast
MDA-MB-231 breast = system: MDA-MB-231 breast
MDA-MB-435 = system: MDA-MB-435
MDA-N = system: MDA-N
MOLT-4 leukemia = system: MOLT-4 leukemia
NCI-H226 lung = system: NCI-H226 lung
NCI-H23 lung = system: NCI-H23 lung
NCI-H460 lung = system: NCI-H460 lung
NCI-H522 lung = system: NCI-H522 lung
NCI/ADR-RES ovarian = system: NCI/ADR-RES ovarian
OVCAR-3 ovarian = system: OVCAR-3 ovarian
OVCAR-4 ovarian = system: OVCAR-4 ovarian
OVCAR-5 ovarian = system: OVCAR-5 ovarian
OVCAR-8 ovarian = system: OVCAR-8 ovarian
PC-3 prostate = system: PC-3 prostate
RXF 393 renal = system: RXF 393 renal
SF-268 CNS = system: SF-268 CNS
SF-295 CNS = system: SF-295 CNS
SF-539 CNS = system: SF-539 CNS
SK-MEL-2 melanoma = system: SK-MEL-2 melanoma
SK-MEL-28 melanoma = system: SK-MEL-28 melanoma
SK-MEL-5 melanoma = system: SK-MEL-5 melanoma
SK-OV-3 ovarian = system: SK-OV-3 ovarian
SN12C renal = system: SN12C renal
SNB-19 CNS = system: SNB-19 CNS
SNB-75 CNS = system: SNB-75 CNS
SR leukemia = system: SR leukemia
SW-620 colon = system: SW-620 colon
T-47D breast = system: T-47D breast
TK-10 renal = system: TK-10 renal
U251 CNS = system: U251 CNS
UACC-257 melanoma = system: UACC-257 melanoma
UACC-62 melanoma = system: UACC-62 melanoma
UO-31 renal = system: UO-31 renal
DLD-1 colon = system: DLD-1 colon
DMS 114 small cell lung = system: DMS 114 small cell lung
DMS 273 small cell lung = system: DMS 273 small cell lung
LXFL 529 NSCLC = system: LXFL 529 NSCLC
M19-MEL melanoma = system: M19-MEL melanoma
RPMI-8226 leukemia = system: RPMI-8226 leukemia

Measured: TGI

COc1cc(/C=C2\N=C(c3ccccc3)N(/N=C3\C(=O)Nc4ccccc43)C2=O)cc(OC)c1OC
not listed: DLD-1 colon | DMS 114 small cell lung | DMS 273 small cell lung | LXFL 529 NSCLC | M19-MEL melanoma | RPMI-8226 leukemia
> 100 µM: all other assays above

Oc1ccc2c(c1)CC[N+]1=C2CCC2CCCC21 (centres undefined)
not listed: A498 renal | BT-549 breast | CCRF-CEM leukemia | DU-145 prostate | HL-60(TB) leukemia | HOP-62 NSCLC | HS 578T breast | K-562 leukemia | KM12 colon | MALME-3M melanoma | MCF7 breast | MDA-MB-231 breast | MDA-MB-435 | MDA-N | MOLT-4 leukemia | NCI-H522 lung | NCI/ADR-RES ovarian | PC-3 prostate | SR leukemia | T-47D breast | U251 CNS | UACC-257 melanoma | RPMI-8226 leukemia
> 100 µM: all other assays above

CCN(CC)C(=S)N/N=C/c1ccccn1
0.349 µM: M14 melanoma
0.989 µM: NCI-H226 lung
11.7 µM: IGROV1 ovarian
26 µM: MCF7 breast
19 µM: 786-0 renal
> 53.9 µM: COLO 205 colon
> 54.8 µM: SR leukemia
11 µM: OVCAR-3 ovarian
0.392 µM: UACC-62 melanoma
0.542 µM: SK-MEL-5 melanoma
10.1 µM: ACHN renal
1.39 µM: A549 NSCLC
2.1 µM: UO-31 renal
1.53 µM: NCI-H522 lung
> 66.4 µM: SF-268 CNS
4.09 µM: HL-60(TB) leukemia
2.44 µM: HOP-92 NSCLC
0.27 µM: LOX IMVI melanoma
0.692 µM: NCI/ADR-RES ovarian
44.8 µM: SNB-75 CNS
1.27 µM: DU-145 prostate
> 77.1 µM: SF-295 CNS
0.377 µM: SF-539 CNS
not listed: A498 renal | HCT-116 colon | HOP-62 NSCLC | NCI-H23 lung | NCI-H460 lung | OVCAR-8 ovarian | RXF 393 renal | SK-OV-3 ovarian | SN12C renal | TK-10 renal | UACC-257 melanoma | DLD-1 colon | DMS 114 small cell lung | DMS 273 small cell lung | LXFL 529 NSCLC | M19-MEL melanoma
> 100 µM: all other assays above

COC(=O)C(Cc1c[nH]c2ccccc12)NC(=O)C(Cc1c[nH]c2ccccc12)NC(=O)C(Cc1c[nH]c2ccccc12)NC(=O)C(Cc1c[nH]c2ccccc12)NC(=O)OC(C)(C)C (centres undefined) (Boc-WWWW-OMe; configuration not given here)
96.5 µM: PC-3 prostate
56.6 µM: SR leukemia
40.2 µM: OVCAR-3 ovarian
34.6 µM: U251 CNS
43.4 µM: HL-60(TB) leukemia
20.7 µM: MOLT-4 leukemia
67 µM: HOP-62 NSCLC
92.3 µM: NCI-H23 lung
28 µM: LOX IMVI melanoma
70.2 µM: BT-549 breast
49 µM: HT29 colon
0.0884 µM: MCF7 breast
38.5 µM: HCC-2998 colon
34.3 µM: CCRF-CEM leukemia
55.3 µM: MDA-N
62.8 µM: SW-620 colon
38.4 µM: UACC-62 melanoma
44.2 µM: HCT-116 colon
26 µM: RPMI-8226 leukemia
not listed: A498 renal | COLO 205 colon | EKVX NSCLC | HOP-92 NSCLC | HS 578T breast | KM12 colon | NCI/ADR-RES ovarian | RXF 393 renal | SF-295 CNS | SF-539 CNS | SK-MEL-2 melanoma | SK-OV-3 ovarian | DLD-1 colon | DMS 114 small cell lung | DMS 273 small cell lung | LXFL 529 NSCLC | M19-MEL melanoma
> 100 µM: all other assays above
